Results published in a melting point compilation (Tetko et al.; mined from patent text by program, amines drawn as free bases though some values may be those of a salt).

| melting point | SMILES |
| --- | --- |
| 86.5 to 88.2 °C | C=C(C)c1nn(-c2c(Cl)cc(C(F)(F)F)cc2Cl)cc1C1CC1(Br)Br (stereo unspecified) |
| 137 to 139 °C | CCOC(=O)c1c(N2CCNCC2)c2ccc(C)nc2n(CC)c1=O |
| 118 to 120 °C | CCOC(=O)Cc1cc(Br)c(C(=O)c2ccc(Cl)cc2)n1C |
| 180 to 182 °C | CC(C)(C)C1=CC(c2cccc([N+](=O)[O-])c2)C2=C(CCCC2=O)N1 (stereo unspecified) |
| 234 to 236 °C | Cc1cccc(Cl)c1C(=O)N[C@@H](Cc1ccc(-c2cn(C)c(=O)n(C)c2=O)cc1)C(=O)O |
| 118 to 120 °C | CCC(=O)NCC(COS(C)(=O)=O)c1cccc2ccc(OC)cc12 (stereo unspecified) |
| 79 to 80 °C | CCCCc1nn(Cc2ccccc2C(=O)OC)c(=O)n1Cc1ccc(-c2ccccc2-c2nnn[nH]2)cc1 |
| 140 to 142 °C | O=C(Cc1ccccc1C(F)(F)F)c1c(O)c2cccnc2n(-c2ccccc2)c1=O |
| 78 to 81 °C | Cc1ccccc1C(=O)NCC(C)O (stereo unspecified) |
| 184 to 186 °C | COc1cc2c(cc1-c1cccnc1)-c1c(Br)c3c(n1CC2)C(=O)N(C(C)(C)C)CCC3 |
| 193 to 195 °C | CCNC(=S)N1CCN(c2ccc3ccccc3n2)CC1 |
| 188 °C | OC(CNC1=NCCCN1)c1ccccc1 (stereo unspecified) |
| 179 to 180 °C | CCOC(=O)C(C=O)c1csc(NC=O)n1 (stereo unspecified) |
| 92 to 94 °C | COC(OC)c1cc(-n2c(=O)cc(C(F)(F)F)n(C)c2=O)ccc1Cl |
| 93 °C | CCNc1nc2ccccc2s1 |
| 119 to 121 °C | Cc1cc2c(-c3ccccc3F)nc(=O)n(C)c2s1 |
| 102 °C | CCOC(=O)C(O)CSc1ccc(-c2ccccc2)cc1 (stereo unspecified) |
| 115 to 116 °C | Cc1oc(-c2ccccc2)nc1CCOc1ccc(/C=C/CO)cn1 |
| 195 to 196 °C | CCC(C)CCCC(C)C1CC(=O)C2(C(=O)O)C3=C(CCC12C)C1(C)CCC(O)CC1CC3 (stereo unspecified) |
| 124 to 126 °C | COc1ccc(-c2c(CO)cc(OC)c(OC)c2OC)c(CO)c1OS(C)(=O)=O |
| 160 to 162 °C | O=C1C(=O)c2ccccc2C2=C1SCC1(CCN(C(=O)c3cccc([N+](=O)[O-])c3)CC1)O2 |
| 155 to 157 °C | N#CCN1C(=O)SC(=Cc2ccc(OCCc3ccccc3)cc2)C1=O |
| 131 to 132 °C | NCCC(O)(c1ccc(Cl)cc1)c1ccc(-c2ccc(Cl)cc2)cc1 (stereo unspecified) |
| 64 to 70 °C | C#CCCCCCCCCCCCCCCCCCCCCO |

| melting point | SMILES |
| --- | --- |
| 38 to 39 °C | CN(C)CCSc1nc2ccccc2n1CCc1ccccc1 |
| 202 °C | Nc1cc(Cl)cc(N)c1[N+](=O)[O-] |
| 111 to 112 °C | CCOC(=O)C1CCC(c2ccc(Cl)cc2)n2c(=O)n(CCCl)c(=O)n21 (stereo unspecified) |
| 150 to 152 °C | COc1nc2cc([N+](=O)[O-])c(C)c(C(=O)N3CCNCC3)c2nc1OC |
| 211 to 212 °C | NC(=O)C1(c2ccc(Br)nc2)CCCC1 |
| 235 to 236 °C | CCOC(=O)C(=O)Nc1cc(NC(=O)NC)ccc1O |
| 218 to 219 °C | COc1cc(C(=O)O)cc(Cl)c1Cl |
| 39 to 40 °C | CC(C)c1cc(O)ccc1OCc1ccccc1 |
| 97 to 107 °C | CN1CC(CCCl)Oc2ccccc2C1=O (stereo unspecified) |
| > 250 °C | O=C(O)c1nc2c(=O)[nH]c3cc(C(F)(F)F)ccc3n2c1CBr |
| 84 to 85 °C | CCCCc1nn(-c2ccc(C(F)(F)F)cn2)cc1/C=C/C(=O)OCC |
| 126 to 127 °C | CN=c1[nH]c(-c2cc(C)c(OCCCc3cc(C)no3)c(C)c2)no1 |
| 150 to 151 °C | CCC1C2C(C(=O)N1Cc1ccc3c(c1)OCO3)C(c1ccc(C#N)cc1)N1CCCC21 (stereo unspecified) |
| 106 °C | FC(F)(F)c1cccc(Oc2nccc(-c3ccc(Cl)c(Cl)c3)n2)c1 |
| 208 °C | Cc1ccnc(C(=O)c2[nH]c3cc(F)ccc3c2CC(=O)O)c1 |
| 58 to 59 °C | COc1cccc2c1C(C#N)C2 (stereo unspecified) |
| 161 to 168 °C | CC1OCCN1CCNc1ccc(NCCN2CCOC2C)c2c1C(=O)c1c(O)ccc(O)c1C2=O (stereo unspecified) |
| 190 to 191 °C | O=C(c1ccccc1)c1nsc2nc3ccccc3n12 |
| 66 to 68 °C | COC(=O)C1=C(C)NC(C)=C(C(=O)OCC2CCCO2)C1c1cccc(F)c1 (stereo unspecified) |
| 108 to 110 °C | Cn1c(-c2ccc(-n3ccnc3)cc2)cnc1[C@H](Cc1ccccn1)N(C=O)c1cc2cccnc2o1 |
| 87 to 88 °C | COC(=O)C1(C(C)C)Oc2c(OC)cccc2C1=O (stereo unspecified) |
| 99 to 101 °C | CS(=O)(=O)Nc1cc(C(O)CNCCCCCCOCCC2CCCCC2)ccc1O (stereo unspecified) |
| 160 to 162 °C | COc1ccc(C=Nc2c3c(nc4ccccc24)CCCC3)cc1 |
| 82 to 84 °C | CCCCCCCCCCCCCCCCCCOc1cc(OCCCCCCc2cccc(O)c2O)cc(C(=O)OC)c1 |

| melting point | SMILES |
| --- | --- |
| 122 to 124 °C | CC(C)N1Cc2cncn2C(c2ccc(C#N)cc2)C1=O (stereo unspecified) |
| 64 to 67 °C | COC(=O)CCNC(=O)C1CCCN1S(=O)(=O)c1ccc(Cl)c(COc2cccc3c(C)cc(C)nc23)c1Cl (stereo unspecified) |
| 169 to 170 °C | Cc1cc2c(CCl)c(CO)c(Cl)nc2cc1Cl |
| 202 to 203 °C | O=C(O)c1cn(C2CC2)c2cc(N3CCNC(CF)C3)c(F)cc2c1=O (stereo unspecified) |
| 117 to 119 °C | CC(C)(C)c1csc(-c2cc3cc(CCl)ccc3o2)n1 |
| 221 to 222 °C | Cc1ccccc1C(=O)Nc1nc(-c2ccccc2)c(-c2ccc(=O)n(C(C)C)n2)s1 |
| 92 to 94 °C | NC(=O)c1cccc(C2OCCO2)c1 |
| 202 to 203 °C | CC(=O)NCC1CN(c2ccc(N3CCN(c4ncc([N+](=O)[O-])s4)CC3)c(F)c2)C(=O)O1 (stereo unspecified) |
| 75 to 77 °C | Cc1ccc(CC(=O)NC(NC(=NC#N)Nc2cccnc2C)C(C)(C)C)cc1F (stereo unspecified) |
| 224 to 227 °C | CCNC(=O)CC1CCN(Cc2cnc3cc(NC(=O)c4ccc(-c5ccc(F)cc5)cc4)ccc3c2)CC1 |
| 155 to 157 °C | COC(=O)/C=C/c1c(-c2ccc(F)cc2)c2ccccc2n1C(C)C |
| 288 °C | CC(C)C1(C(C)C)CC(c2ccc(N)cc2)=CC=C1N |
| 195 to 197 °C | CCS(=O)(=O)c1ccc(-c2nc(-c3nc4cc(OC)cc(OC)c4c(=O)[nH]3)ccc2OCCNC(C)C)cc1 |
| 128 to 130 °C | COCCn1c(C)nc2cnc3ccccc3c21 |
| 114 to 116 °C | CC(=O)NC[C@H]1CN(c2ccc(N3CCC4(CC3)COCCO4)c(F)c2)C(=O)O1 |
| 168 °C | CC(O)Cc1cc([N+](=O)[O-])cc([N+](=O)[O-])c1N (stereo unspecified) |
| 71 to 73 °C | Cc1sccc1C(=O)O |
| 135 to 137 °C | CCCCCCCCCCCCCCS(=O)(=O)NC(=O)Nc1c(C(C)C)cccc1C(C)C |
| 165 to 167 °C | Cc1cccc(C2=C(c3ccc(S(C)(=O)=O)cc3)CC(CN(C)C)C2O)c1 (stereo unspecified) |
| 244 °C | Cc1cccc(NC(=O)c2cc(C#N)cc(C)n2)n1 |
| 183 to 185 °C | CC(C)Oc1c(C(N)=O)oc2ccc(O)cc12 |
| 138 to 144 °C | CCCCOC(=O)c1cc([N+](=O)[O-])c(Oc2ccc(OCc3ccccc3)cc2)c(S(N)(=O)=O)c1 |
| 230 to 232 °C | O=C(O)CCNCCn1nc(-c2c(-c3ccccc3)nn3ccccc23)ccc1=O |
| 121 to 123 °C | COCCOC(=O)Nc1cccc(C)c1COc1cccn2c(CO)c(C)nc12 |

| melting point | SMILES |
| --- | --- |
| 155 to 158 °C | Cc1cc(-n2nnc(-c3ccccc3)n2)sc1C(=O)NCc1ccccc1 |
| 205 to 210 °C | COc1nc(-n2cc(C(=O)O)c(=O)c3cc(F)c(F)c(Cl)c32)c(F)cc1F |
| 112 to 114 °C | CN1CCC(NC2=Nc3ccccc3Cn3nnnc32)CC1 |
| 143 to 145 °C | CON=C(C)COc1c(-c2ccc(S(C)(=O)=O)cc2)cnn(-c2ccc(F)c(F)c2)c1=O |
| 220 to 222 °C | O=c1[nH]c(NCCc2c[nH]cn2)nc2c1ncn2C1CC(O)C(CO)O1 (stereo unspecified) |
| 122 to 123 °C | COc1ccc2c3c(ccc2c1)OC(=O)CC3 |
| 56.5 °C | Cc1ccc(Sc2ccc(C)cc2)cc1 |
| 120 to 122 °C | O[C@@H]1CNC[C@H]1Oc1ccccc1 (relative stereo) |
| 258 to 260 °C | O=C1CCC(N2Cc3c(OCC4Cc5ccccc5O4)cccc3C2=O)C(=O)N1 (stereo unspecified) |
| 156 to 157 °C | O=C(Oc1ccc(S(=O)(=O)Nc2ccccc2)cc1)c1ccc(CCBr)cc1 |
| 148 to 150 °C | CCC1CC(=O)c2cc(C(C)C(N)=O)ccc2O1 (stereo unspecified) |
| 170 to 174 °C | CC(C)C(NC(=O)C(Cc1ccccc1)NC(=O)OCc1ccccc1)C(=O)Nc1n[nH]c(=S)s1 (stereo unspecified) |
| 129 to 130 °C | N#CNC(=NCCCOc1ccccc1)Nc1cncc(Br)c1 |
| 192 to 193 °C | N#CN1CCC(=C2c3ccccc3Sc3cccnc32)CC1 |
| 195 to 197 °C | CN(C)S(=O)(=O)c1ccc(Cl)c(-c2csc(=Nc3ccccc3)n2C)c1 |
| 204 to 205 °C | CC(C)N1C(=O)c2cnc(-c3ccccc3)nc2N(C(=O)CCl)c2ccccc21 |
| 183 to 185 °C | Cn1ccc2cccc(C3=C(c4c[nH]c5c(CCCO)cccc45)C(=O)NC3=O)c21 |
| 110 to 112 °C | COC(=O)CCC12CCC(=O)N1C(=O)CC2 |
| 160 to 161 °C | COc1ccc(-n2c(-c3ccc(Cl)cc3Cl)nc(C(=O)NC3CCCCC3)c2C)cc1 |
| 233 to 234 °C | CC(C)(C)c1ccc(Cn2c3c(c4cc(OCc5ccccc5)ccc42)C(=O)C(=O)OC3)cc1 |
| 236 to 237 °C | CCC1Cc2c(nc3ccc(F)cc3c2C(=O)O)-c2ccc(-c3ccccc3F)cc21 (stereo unspecified) |
| 238 to 240 °C | O=C(NC1CCN(CCc2ccccc2)CC1)c1c[nH]c2ccc(F)cc12 |
| 77 to 79 °C | COC(=O)Cc1ccc(CNC(=O)C2Cc3ccccc3N2S(=O)(=O)c2ccc(-c3ccc(F)cc3OC)cc2)cc1 (stereo unspecified) |
| 112 to 113 °C | COC(=O)c1cc2cc(N)ccc2o1 |

| SMILES | melting point |
| --- | --- |
| CC12CCC(O)CC1CCC1C2CCC2(C)C(=O)CCC12F (stereo unspecified) | 201 to 202 °C |
| CCC1CC2=CC(OC(=O)c3ccc([N+](=O)[O-])cc3)CCC2C2CCC3(C)C(O)CCC3C12 (stereo unspecified) | 135 to 136 °C |
| C=CCCN1C(=O)C2C3CCC(O3)C2C1=O (stereo unspecified) | 64 to 65 °C |
| NCc1ccc(CNC(=O)[C@@H](CCCNC(N)=N[N+](=O)[O-])NC(=O)C(c2ccccc2)c2ccccc2)cc1 | 198 to 199 °C |
| CC1CN(c2cc3ccccc3c(=O)[nH]2)CCN1 (stereo unspecified) | 164 to 167 °C |
